Laboratory results taken from US11643385B2, “Polymorphic forms of RAD1901-2HCl” (RADIUS PHARMACEUTICALS, INC., priority 2018, dated 2023).
Entries after “also recorded” stand apart in the source; their conditions may differ.

How the values were obtained:
Assay type in all cases: physicochemical
[1] = Storage at elevated temperature/humidity, solid form checked by XRPD; settings: for XRPD after storage at 25° C./97% RH for 1 week (solid form) / XRPD after storage at 40° C./75% RH for 1 week (solid form): 1 week (7 days); for Form change on exposure to high RH (>90%): e.g. 7 days / prolonged exposure
Method: Samples 1 and 2 were characterized by XRPD at various conditions. XRPD patterns were collected for the samples at ambient condition as the samples were provided; at variable temperature (VT-XRPD); at variable humidity (VH-XRPD); after the samples were exposed to 40° C./75% RH for 1 week and 25° C./97% RH for 1 week, respectively; and after a GVS measurement wherein the samples were exposed to 0-90% RH. Samples 1 and 2 were also characterized by ^1H NMR, TGA, DSC, KF, IC, GVS (exposed to 0-90% RH), PLM, SEM, and HPLC (Table 5). […]

[2] = Gravimetric Vapour Sorption (GVS) with XRPD post-GVS; settings: for GVS total mass change between 0 and 90% RH: 0-90% RH (Table 17); for XRPD post GVS (uptake 0-90% RH): after GVS 0-90% RH; for Form change at high RH (>90%) in GVS experiments: above 90% RH
Method: Sorption isotherms were obtained using a SMS DVS Intrinsic moisture sorption analyzer, controlled by DVS Intrinsic Control software v1.0.1.2 (or v 1.0.1.3). The sample temperature was maintained at 25° C. by the instrument controls. The humidity was controlled by mixing streams of dry and wet nitrogen, with a total flow rate of 200 ml/min. The relative humidity was measured by a calibrated Rotronic probe (dynamic range of 1.0-100% RH), located near the sample. The weight change, (mass relaxation) of the sample as a function of % RH was constantly monitored by the microbalance (accuracy ±0.005 mg).
A sample (e.g., 20 mg) was placed in a tared mesh stainless steel basket under ambient conditions. The sample was loaded and unloaded at 40% RH and 25° C. (typical room conditions). A moisture sorption isotherm was performed as outlined below (2 scans giving 1 complete cycle). Standard isotherms were performed at 25° C. at 10% RH intervals over a 0-90% RH range. Data analysis was carried out using Microsoft Excel using DVS Analysis Suite v6.2 (or 6.1 or 6.0).
In a cycle of 2 scans, the first scan was performed with adsorption of 40-90% RH, followed by a second scan with desorption of 90-0% RH and adsorption of 0-40% RH, with intervals of 10% RH, at 25° C. with stability dm/dt of 0.002% ° C./min. The sorption time was 6 hr time out.
The sample was recovered after completion of the isotherm and re-analyzed by XRPD. Custom moisture sorption methods were also performed at 25° C. at fixed % RH intervals over a 0-95% RH range, with the purpose to fully understand the sorption/desorption behavior of the compound under elevated conditions.
To further explore the humidity behavior of Sample 1 (Form 1) upon exposure to high RH (>90%), custom GVS experiments were designed and carried out. Initially, the sample was treated by holding at 90 and then 95% RH for ˜12 hours to see if hydrate formation could be observed (HighRH method of Steps 1 and 2 of Table 2, FIGS. 6C-6D).
To test the stability of the hydrated state, GVS method HighRH_Desorp_3 was designed with a desorption step and subsequent adsorption (see Table 2 with steps 1-4, FIGS. 6E-6F).
Finally, to ensure complete conversion to the anhydrous and hydrated forms, a GVS experiment was designed to increase both the length of the desorption step at 0% RH, and the adsorption step at 95% RH, respectively (Table 3). Based on the weight stabilization observed in the kinetic plots for Sample 1 in HighRH and HighRH_Desorp_3 methods discussed above (FIGS. 6D and 6F), a holding time of 800 mins at 0% RH and 1600 mins at 95% RH were chosen. A double cycle was also recorded for this experiment to observe whether the sample would return to Form 1 or form a mixed anhydrous/hydrated species (see Table 3, FIGS. 6G-6H).

[3] = Variable temperature XRPD (VT-XRPD)
Method: Samples run under non-ambient conditions were mounted on a silicon wafer with a heat-conducting compound. The sample was then heated from ambient to the appropriate temperature at 20° C./min and subsequently held isothermally for 1 minute before data collection was initiated.
Variable Temperature XRPD (VT-XRPD) experiments were therefore conducted to examine the thermal behavior of Sample 2 observed by DSC (see FIG. 9B). […] (blue) as Form 1 material (FIG. 5D).

[4] = Variable humidity XRPD (VH-XRPD)
Method: Samples run under non-ambient conditions were prepared by gently packing into a cavity, cut into a silicon wafer to obtain a flat surface and mounted onto a humidity stage with an Ansyco controller and humidity sensor positioned directly next to the sample holder. The data were collected at 298.15 K with water temperature of 35.0° C., in an angular range of 3 to 31° 2θ, with a step size of 0.025° 2θ, a collection time of 2.0 sec/step, and a collection time at each % RH was 41 min 28 sec.
X-Ray Powder Diffraction (XRPD) patterns were collected at variable humidity values from 0 to 95% RH, based upon the humidity behavior of each compound observed during GVS experiments (described herein). For each Variable Humidity X-Ray Powder Diffraction (VH-XRPD) experiment performed, the % RH values selected are provided alongside the relevant experimental result. Full tables of detailing the % RH value at each collection point and the associated delay time at each value are provided in Tables 10-12.
To fully characterize the polymorphic behavior of Samples 1 and 2 at variable humidity, and to collect reference XRPD patterns for the ‘pure’ anhydrous Form 1 and Form 2 material, and ‘pure’ hydrated Form 3 material, Variable Humidity (VH) XRPD experiments were conducted on Samples 1 and 2. Initially, VH-XRPD experiments were conducted using Sample 1, and XRPD diffractograms were collected at selected humidity values, in line with those collected during GVS experiments (see FIGS. 6E-6F). XRPD diffractograms were collected initially at ambient RH, then collected over 24 hours at ˜95% RH and finally collected during desorption steps to 0% RH and over 10 hours at 0% RH (see FIG. 4C).

[5] = Solubility assessment and polymorph screen on Sample 1 (Form 1) of RAD1901-2HCl in 24 solvent systems
Method: Solubility assessment was carried out on the Sample 1 of RAD1901-2HCl (majorly Form 1 shown by XRPD) in 24 solvent systems in HPLC vials (sample IDs: A1 to A24). RAD1901-2HCl (25 mg) was treated with increasing volumes of solvent until the material fully dissolved or until a maximum of 60 vol had been used (Table 13).
After each addition of solvent, the system was stirred for 5 to 10 minutes at 25° C., then shaken at 50° C. for 5 to 10 minutes, and observations made. Samples were allowed to stand at room temperature for 5 min before the addition of a new aliquot of solvent. After the assessment was completed, the suspensions obtained were matured (maturation) and the clear solutions were cooled (cooling) and slowly evaporated (evaporation) as described below. All solids recovered from maturation, cooling and evaporation experiments were analyzed by high resolution XRPD.
The suspensions obtained during the solubility assessment were matured by shaken in a maturation chamber between 50° C. and RT (8 hr per cycle) for up to 5 days. Then the mixture was allowed to stand at room temperature for 10 minutes. The resulting solids were filtered and air dried and analyzed by XRPD. The clear solutions obtained during maturation were evaporated in ambient conditions and the resulting residues were analyzed by XRPD.
The clear solutions obtained during the course of the solubility assessment were cooled on a Polar Bear device from 50° C. to 5° C. at 0.1° C./min. Solids obtained upon cooling were recovered from the vials, air dried and analyzed by XRPD. If no solid was obtained, the solutions were evaporated slowly through a needle inserted into the septum cap of the vial until a solid appeared at ambient conditions and the resulting solids were filtered, air dried and analyzed by XRPD.

[6] = Storage at elevated temperature/humidity, solid form checked by XRPD

CCNCCc1ccc(CN(CC)c2cc(OC)ccc2[C@@H]2CCc3cc(O)ccc3C2)cc1.Cl.Cl [Form 1B]
XRPD after storage at 25° C./97% RH for 1 week (solid form) ([1]; listed as Pattern B): Unchanged post storage at both conditions | XRPD after storage at 40° C./75% RH for 1 week (solid form) ([1]; listed as Pattern B): Unchanged post storage at both conditions | GVS total mass change between 0 and 90% RH ([2]; listed as Pattern B): Total change in mass of 1.4% wt. between 0 and 90% RH, | XRPD post GVS (uptake 0-90% RH) ([2]; 25° C., listed as Pattern B): no hysteresis. XRPD post-GVS is consistent with Pattern

CCNCCc1ccc(CN(CC)c2cc(OC)ccc2[C@@H]2CCc3cc(O)ccc3C2)cc1.Cl.Cl [Form 1]
XRPD after storage at 25° C./97% RH for 1 week (solid form) [1]: converted to Form 3; also recorded: conversion towards a hydrated state Form 3; also recorded: Converts to Form 3 at 25° C./ | XRPD after storage at 40° C./75% RH for 1 week (solid form) [1]: stable; also recorded: Remains as Form 1 at 40° C./ | Form change on exposure to high RH (>90%) [1]: irreversibly converted to the hydrate Form 3 | Stability of the form (heat/humidity), in words ([1]; summary of characterizations of Samples 1 and 2): stable | GVS: reversibility of uptake and loss ([2]; 0-90% RH): exhibits reversible uptake and loss, | Hygroscopicity (GVS), in words ([2]; 0-90% RH): lower hygroscopicity; also recorded: relatively non-hygroscopic; also recorded: low hygroscopicity; also recorded: Sample is slightly hygroscopic, but | GVS total mass change between 0 and 90% RH [2]: Total mass change of 1.7% wt. | Form change at high RH (>90%) in GVS experiments [2]: started converting to the hydrate Form 3 | XRPD post GVS (uptake 0-90% RH) ([2]; 25° C.): unchanged XRPD pattern; also recorded: No changes; also recorded: Form 1

CCNCCc1ccc(CN(CC)c2cc(OC)ccc2[C@@H]2CCc3cc(O)ccc3C2)cc1.Cl.Cl [Sample 2]
XRPD after storage at 25° C./97% RH for 1 week (solid form) [1]: Form 3 | XRPD after storage at 40° C./75% RH for 1 week (solid form) [1]: Form 3 | VT-XRPD: form after melt and recrystallization above 175° C. ([3]; heated above 175° C.): converted to Form 1; also recorded: recrystallized as Form 1 | VT-XRPD: form obtained on heating to 100° C. ([3]; heating to 100° C.): converted to Form 2; also recorded: Anhydrous Form 2 | VH-XRPD: form at 0% RH ([4]; 0% RH): 5E). Form 2 at 0% | VH-XRPD: form change at >90% RH ([4]; >90% RH (92-93% RH)): conversion toward the hydrated state; also recorded: Conversion to Form 3 | Hygroscopicity (GVS), in words ([2]; 0-90% RH): hygroscopic | XRPD post GVS (uptake 0-90% RH) ([2]; 25° C.): mixture of Form 2 and Form 3

CCNCCc1ccc(CN(CC)c2cc(OC)ccc2[C@@H]2CCc3cc(O)ccc3C2)cc1.Cl.Cl [Form 3]
Form obtained on exposure to <40% RH for 8 hr ([1]; <40% RH, 8 hr): Form 2

CCNCCc1ccc(CN(CC)c2cc(OC)ccc2[C@@H]2CCc3cc(O)ccc3C2)cc1.Cl.Cl [Form 2]
Form obtained on exposure to >40% RH for 7 days ([1]; >40% RH, 7 days): Form 3 | Hygroscopicity (GVS), in words ([2]; 0-90% RH): hygroscopic

CCNCCc1ccc(CN(CC)c2cc(OC)ccc2[C@@H]2CCc3cc(O)ccc3C2)cc1.Cl.Cl [Sample 1]
XRPD after storage at 25° C./97% RH for 1 week (solid form) [1]: Form 3 | XRPD after storage at 40° C./75% RH for 1 week (solid form) [1]: Form 1 | Form change on exposure to high RH (>90%) [1]: converted to the hydrate Form 3 | VH-XRPD: form change over 24 hr at ~95% RH ([4]; ~95% RH, 24 hr): unable to show a direct conversion; also recorded: Form 3 over | Solubility in alcohols, esters, and hydrocarbon solvents, in words ([5]; alcohols, esters, hydrocarbon solvents): low solubility | Solubility in water, in words ([5]; water): highly soluble | Solubility in water and t-butanol/water (1:1), in words ([5]; water, t-butanol/water (1:1)): high solubility | GVS: reversibility of uptake and loss ([2]; 0-90% RH): (reversible) | GVS uptake 0-90% RH ([2]; 0-90% RH, 25° C.): 1.8% wt. | GVS mass uptake when held at 95% RH for ~12 hours (HighRH method) ([2]; 95% RH, ~12 hours): 5-6 % wt. | Form change at high RH (>90%) in GVS experiments [2]: irreversibly converted to a hydrate (Form 3) | XRPD post GVS (uptake 0-90% RH) ([2]; 25° C.): Form 1 | XRPD post-GVS (HighRH_DoubleCycle_2 method) ([2]; double cycle, 1600 mins at 95% RH, 800 mins at 0% RH): Form 3 | XRPD post-GVS (HighRH method) ([2]; held at 90 then 95% RH for ~12 hours): mixture of states or incomplete conversion | XRPD post-GVS (HighRH_Desorp_3 method) ([2]; single cycle to 95% RH, desorption to 0% RH, adsorption to 40% RH): mixture of Form 1 and Form 3

CCNCCc1ccc(CN(CC)c2cc(OC)ccc2[C@@H]2CCc3cc(O)ccc3C2)cc1.Cl.Cl [Lyophilization in water]
XRPD post storage at 25° C./97% RH (10 days) ([6]; 25° C./97% RH): Consistent with Form 3 | XRPD post storage at 40° C./75% RH (10 days) ([6]; 40° C./75% RH): Consistent with Form 3
